Data reported in ChEMBL document CHEMBL4507282, “Data for DCP probe BI-1950” (2021).
The source made the active and inactive calls. No cut-off for these calls is given here.

Assays:
[1] = system: Phosphatidylinositol 4,5-bisphosphate 3-kinase catalytic subunit alpha isoform (Homo sapiens), P42336 [E542K]; details: Compound concentration 1000.0 nM
[2] = molecular target: Activin receptor type-2A (Homo sapiens) (UniProt P27037); details: Compound concentration 1000.0 nM
[3] = molecular target: Cyclin-dependent kinase 16 (Homo sapiens) (UniProt Q00536); details: Compound concentration 1000.0 nM
[4] = molecular target: Serine/threonine-protein kinase MRCK alpha (Homo sapiens) (UniProt Q5VT25); details: Compound concentration 1000.0 nM
[5] = system: Mast/stem cell growth factor receptor Kit (Homo sapiens), P10721 [V559D,V654A]; details: Compound concentration 1000.0 nM
[6] = molecular target: Mitogen-activated protein kinase 4 (Homo sapiens) (UniProt P31152); details: Compound concentration 1000.0 nM
[7] = molecular target: Myosin light chain kinase family member 4 (Homo sapiens) (UniProt Q86YV6); details: Compound concentration 1000.0 nM
[8] = molecular target: Serine/threonine-protein kinase PLK1 (Homo sapiens) (UniProt P53350); details: Compound concentration 1000.0 nM
[9] = molecular target: Ephrin type-B receptor 2 (Homo sapiens) (UniProt P29323); details: Compound concentration 1000.0 nM
[10] = molecular target: Cyclin-dependent kinase 4 (Homo sapiens) (UniProt P11802); details: Compound concentration 1000.0 nM
[11] = molecular target: MAP kinase-interacting serine/threonine-protein kinase 2 (Homo sapiens) (UniProt Q9HBH9); details: Compound concentration 1000.0 nM
[12] = molecular target: Histamine H4 receptor (Homo sapiens) (UniProt Q9H3N8); details: Compound concentration 10.0 uM
[13] = molecular target: MAP kinase-activated protein kinase 2 (Homo sapiens) (UniProt P49137); details: Compound concentration 1000.0 nM
[14] = molecular target: Mitogen-activated protein kinase kinase kinase 5 (Homo sapiens) (UniProt Q99683); details: Compound concentration 1000.0 nM
[15] = molecular target: Mitogen-activated protein kinase kinase kinase 9 (Homo sapiens) (UniProt P80192); details: Compound concentration 1000.0 nM
[16] = molecular target: Cyclin-dependent kinase 15 (Homo sapiens) (UniProt Q96Q40); details: Compound concentration 1000.0 nM
[17] = molecular target: Calcium/calmodulin-dependent protein kinase type IV (Homo sapiens) (UniProt Q16566); details: Compound concentration 1000.0 nM
[18] = system: Tyrosine-protein kinase ABL1 (Homo sapiens), P00519 [M351T]; details: Compound concentration 1000.0 nM
[19] = molecular target: Activin receptor type-1B (Homo sapiens) (UniProt P36896); details: Compound concentration 1000.0 nM
[20] = molecular target: Aurora kinase A (Homo sapiens) (UniProt O14965); details: Compound concentration 1000.0 nM
[21] = molecular target: Serine/threonine-protein kinase RIO2 (Homo sapiens) (UniProt Q9BVS4); details: Compound concentration 1000.0 nM
[22] = system: Leucine-rich repeat serine/threonine-protein kinase 2 (Homo sapiens), Q5S007 [G2019S]; details: Compound concentration 1000.0 nM
[23] = molecular target: Non-receptor tyrosine-protein kinase TNK1 (Homo sapiens) (UniProt Q13470); details: Compound concentration 1000.0 nM
[24] = molecular target: Fibroblast growth factor receptor 1 (Homo sapiens) (UniProt P11362); details: Compound concentration 1000.0 nM
[25] = molecular target: Ephrin type-B receptor 6 (Homo sapiens) (UniProt O15197); details: Compound concentration 1000.0 nM
[26] = system: Phosphatidylinositol 4,5-bisphosphate 3-kinase catalytic subunit alpha isoform (Homo sapiens), P42336 [Q546K]; details: Compound concentration 1000.0 nM
[27] = molecular target: Serine/threonine-protein kinase Chk1 (Homo sapiens) (UniProt O14757); details: Compound concentration 1000.0 nM
[28] = molecular target: Vascular endothelial growth factor receptor 3 (Homo sapiens) (UniProt P35916); details: Compound concentration 1000.0 nM
[29] = molecular target: Mitogen-activated protein kinase 14 (Homo sapiens) (UniProt Q16539); details: Compound concentration 1000.0 nM
[30] = molecular target: Calcium/calmodulin-dependent protein kinase type II subunit beta (Homo sapiens) (UniProt Q13554); details: Compound concentration 1000.0 nM
[31] = molecular target: Mitogen-activated protein kinase kinase kinase 7 (Homo sapiens) (UniProt O43318); details: Compound concentration 1000.0 nM
[32] = molecular target: Serine/threonine-protein kinase RIO1 (Homo sapiens) (UniProt Q9BRS2); details: Compound concentration 1000.0 nM
[33] = molecular target: D(1A) dopamine receptor (Homo sapiens) (UniProt P21728); details: Compound concentration 10.0 uM
[34] = molecular target: Tyrosine-protein kinase FRK (Homo sapiens) (UniProt P42685); details: Compound concentration 1000.0 nM
[35] = molecular target: Receptor-interacting serine/threonine-protein kinase 2 (Homo sapiens) (UniProt O43353); details: Compound concentration 1000.0 nM
[36] = molecular target: Serine/threonine-protein kinase Nek3 (Homo sapiens) (UniProt P51956); details: Compound concentration 1000.0 nM
[37] = molecular target: Dual specificity protein kinase CLK1 (Homo sapiens) (UniProt P49759); details: Compound concentration 1000.0 nM
Integrin alpha-L = Integrin alpha-L (Homo sapiens, UniProt P20701); experiment: ITGAL binding assay
[38] = molecular target: NUAK family SNF1-like kinase 2 (Homo sapiens) (UniProt Q9H093); details: Compound concentration 1000.0 nM
[39] = molecular target: Macrophage colony-stimulating factor 1 receptor (Homo sapiens) (UniProt P07333); details: Compound concentration 1000.0 nM
[40] = molecular target: Serine/threonine-protein kinase TBK1 (Homo sapiens) (UniProt Q9UHD2); details: Compound concentration 1000.0 nM
[41] = molecular target: Dual specificity protein kinase TTK (Homo sapiens) (UniProt P33981); details: Compound concentration 1000.0 nM
[42] = system: Tyrosine-protein kinase ABL1 (Homo sapiens), P00519 [E255K]; details: Compound concentration 1000.0 nM
[43] = molecular target: Receptor-interacting serine/threonine-protein kinase 4 (Homo sapiens) (UniProt P57078); details: Compound concentration 1000.0 nM
[44] = molecular target: Serine/threonine-protein kinase TAO1 (Homo sapiens) (UniProt Q7L7X3); details: Compound concentration 1000.0 nM

Chain of Dual specificity protein kinase CLK1 (Homo sapiens) (P49759 whole entry, looked up): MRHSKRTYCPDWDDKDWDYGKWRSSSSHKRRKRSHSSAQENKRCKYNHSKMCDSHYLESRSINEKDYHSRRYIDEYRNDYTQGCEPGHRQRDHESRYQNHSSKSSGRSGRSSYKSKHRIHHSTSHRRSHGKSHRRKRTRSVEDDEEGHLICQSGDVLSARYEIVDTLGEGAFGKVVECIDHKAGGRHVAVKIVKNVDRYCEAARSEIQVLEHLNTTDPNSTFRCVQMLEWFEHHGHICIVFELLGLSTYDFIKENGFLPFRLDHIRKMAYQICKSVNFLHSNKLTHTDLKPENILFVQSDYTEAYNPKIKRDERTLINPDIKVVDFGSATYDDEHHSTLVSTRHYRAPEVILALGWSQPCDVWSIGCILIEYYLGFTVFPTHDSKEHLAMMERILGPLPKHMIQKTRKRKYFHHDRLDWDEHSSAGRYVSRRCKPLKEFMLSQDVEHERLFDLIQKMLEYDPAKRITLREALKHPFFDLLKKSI
Chain of Serine/threonine-protein kinase PLK1 (Homo sapiens) (P53350 whole entry): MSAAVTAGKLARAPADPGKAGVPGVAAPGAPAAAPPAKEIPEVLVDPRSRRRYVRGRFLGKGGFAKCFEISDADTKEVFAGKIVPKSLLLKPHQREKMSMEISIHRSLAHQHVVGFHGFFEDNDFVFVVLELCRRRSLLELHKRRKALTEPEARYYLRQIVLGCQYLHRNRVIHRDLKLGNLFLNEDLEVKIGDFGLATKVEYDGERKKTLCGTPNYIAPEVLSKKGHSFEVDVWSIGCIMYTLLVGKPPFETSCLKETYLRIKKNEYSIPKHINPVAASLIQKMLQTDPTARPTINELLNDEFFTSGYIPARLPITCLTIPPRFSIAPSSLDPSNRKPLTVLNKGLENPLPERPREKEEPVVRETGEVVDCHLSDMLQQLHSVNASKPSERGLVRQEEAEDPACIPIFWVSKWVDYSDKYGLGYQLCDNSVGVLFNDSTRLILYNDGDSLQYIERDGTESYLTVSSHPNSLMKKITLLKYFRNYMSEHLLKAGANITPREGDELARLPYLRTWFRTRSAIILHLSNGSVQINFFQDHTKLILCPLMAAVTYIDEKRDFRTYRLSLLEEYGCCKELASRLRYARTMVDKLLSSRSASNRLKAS
Chain of Ephrin type-B receptor 6 (Homo sapiens) (O15197 whole entry, canonical isoform): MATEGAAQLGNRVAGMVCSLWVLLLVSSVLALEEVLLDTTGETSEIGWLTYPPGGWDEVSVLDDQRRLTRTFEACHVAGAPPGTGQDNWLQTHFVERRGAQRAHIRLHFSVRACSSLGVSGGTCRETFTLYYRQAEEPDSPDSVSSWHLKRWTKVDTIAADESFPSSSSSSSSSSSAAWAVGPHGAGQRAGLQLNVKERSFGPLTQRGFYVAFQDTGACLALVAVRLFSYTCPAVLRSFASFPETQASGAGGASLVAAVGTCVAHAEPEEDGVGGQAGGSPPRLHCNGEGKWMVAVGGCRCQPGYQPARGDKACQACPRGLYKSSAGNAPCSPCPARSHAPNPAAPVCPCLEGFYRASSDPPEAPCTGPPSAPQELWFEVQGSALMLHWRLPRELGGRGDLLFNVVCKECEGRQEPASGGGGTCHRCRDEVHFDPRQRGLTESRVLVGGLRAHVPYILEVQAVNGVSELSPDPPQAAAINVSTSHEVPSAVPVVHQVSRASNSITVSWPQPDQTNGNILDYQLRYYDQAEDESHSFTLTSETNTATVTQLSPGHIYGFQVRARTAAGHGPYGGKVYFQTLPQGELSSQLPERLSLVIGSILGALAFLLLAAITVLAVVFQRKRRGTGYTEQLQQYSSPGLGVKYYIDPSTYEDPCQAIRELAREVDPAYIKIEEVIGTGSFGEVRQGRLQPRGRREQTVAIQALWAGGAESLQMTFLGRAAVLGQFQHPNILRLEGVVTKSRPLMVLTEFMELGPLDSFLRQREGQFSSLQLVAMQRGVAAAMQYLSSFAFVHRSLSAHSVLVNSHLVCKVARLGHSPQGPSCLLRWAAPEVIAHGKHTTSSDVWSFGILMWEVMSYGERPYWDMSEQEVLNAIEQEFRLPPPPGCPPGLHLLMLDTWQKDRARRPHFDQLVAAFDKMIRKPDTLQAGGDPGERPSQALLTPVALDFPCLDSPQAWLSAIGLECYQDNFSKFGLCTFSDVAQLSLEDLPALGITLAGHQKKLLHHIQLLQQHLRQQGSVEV
Chain of Serine/threonine-protein kinase Nek3 (Homo sapiens) (P51956 whole entry): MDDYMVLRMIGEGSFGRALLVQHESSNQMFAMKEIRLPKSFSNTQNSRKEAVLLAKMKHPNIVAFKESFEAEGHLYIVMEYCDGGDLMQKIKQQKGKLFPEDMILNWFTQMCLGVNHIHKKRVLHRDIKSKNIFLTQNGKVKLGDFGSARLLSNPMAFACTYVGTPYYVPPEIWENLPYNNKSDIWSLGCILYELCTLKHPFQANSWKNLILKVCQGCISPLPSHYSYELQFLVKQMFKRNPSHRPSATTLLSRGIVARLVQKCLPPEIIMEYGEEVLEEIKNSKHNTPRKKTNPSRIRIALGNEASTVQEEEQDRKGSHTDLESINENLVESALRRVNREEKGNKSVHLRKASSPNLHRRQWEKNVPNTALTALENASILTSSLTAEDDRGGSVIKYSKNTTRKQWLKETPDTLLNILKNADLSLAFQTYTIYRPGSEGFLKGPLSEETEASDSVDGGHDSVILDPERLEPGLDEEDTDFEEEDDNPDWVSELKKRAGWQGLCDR
Chain of NUAK family SNF1-like kinase 2 (Homo sapiens) (Q9H093 whole entry): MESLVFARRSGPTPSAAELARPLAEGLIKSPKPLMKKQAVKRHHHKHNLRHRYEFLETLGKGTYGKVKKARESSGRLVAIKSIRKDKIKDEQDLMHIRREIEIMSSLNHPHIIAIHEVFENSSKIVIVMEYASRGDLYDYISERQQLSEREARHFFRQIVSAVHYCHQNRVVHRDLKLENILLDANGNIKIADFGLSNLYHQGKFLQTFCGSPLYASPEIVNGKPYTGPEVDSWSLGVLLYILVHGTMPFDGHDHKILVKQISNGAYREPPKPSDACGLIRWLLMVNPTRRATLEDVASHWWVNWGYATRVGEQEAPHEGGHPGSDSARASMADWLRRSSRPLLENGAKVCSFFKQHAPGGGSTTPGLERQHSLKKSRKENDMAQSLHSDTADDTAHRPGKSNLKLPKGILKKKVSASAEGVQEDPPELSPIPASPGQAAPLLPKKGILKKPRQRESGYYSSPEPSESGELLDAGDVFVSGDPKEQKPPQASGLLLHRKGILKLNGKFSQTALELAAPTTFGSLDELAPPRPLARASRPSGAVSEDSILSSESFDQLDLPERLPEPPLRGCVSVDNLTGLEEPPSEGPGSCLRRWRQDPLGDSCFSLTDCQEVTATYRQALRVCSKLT
Chain of Phosphatidylinositol 4,5-bisphosphate 3-kinase catalytic subunit alpha isoform (Homo sapiens), P42336 [E542K] (P42336 whole entry E542K, canonical isoform): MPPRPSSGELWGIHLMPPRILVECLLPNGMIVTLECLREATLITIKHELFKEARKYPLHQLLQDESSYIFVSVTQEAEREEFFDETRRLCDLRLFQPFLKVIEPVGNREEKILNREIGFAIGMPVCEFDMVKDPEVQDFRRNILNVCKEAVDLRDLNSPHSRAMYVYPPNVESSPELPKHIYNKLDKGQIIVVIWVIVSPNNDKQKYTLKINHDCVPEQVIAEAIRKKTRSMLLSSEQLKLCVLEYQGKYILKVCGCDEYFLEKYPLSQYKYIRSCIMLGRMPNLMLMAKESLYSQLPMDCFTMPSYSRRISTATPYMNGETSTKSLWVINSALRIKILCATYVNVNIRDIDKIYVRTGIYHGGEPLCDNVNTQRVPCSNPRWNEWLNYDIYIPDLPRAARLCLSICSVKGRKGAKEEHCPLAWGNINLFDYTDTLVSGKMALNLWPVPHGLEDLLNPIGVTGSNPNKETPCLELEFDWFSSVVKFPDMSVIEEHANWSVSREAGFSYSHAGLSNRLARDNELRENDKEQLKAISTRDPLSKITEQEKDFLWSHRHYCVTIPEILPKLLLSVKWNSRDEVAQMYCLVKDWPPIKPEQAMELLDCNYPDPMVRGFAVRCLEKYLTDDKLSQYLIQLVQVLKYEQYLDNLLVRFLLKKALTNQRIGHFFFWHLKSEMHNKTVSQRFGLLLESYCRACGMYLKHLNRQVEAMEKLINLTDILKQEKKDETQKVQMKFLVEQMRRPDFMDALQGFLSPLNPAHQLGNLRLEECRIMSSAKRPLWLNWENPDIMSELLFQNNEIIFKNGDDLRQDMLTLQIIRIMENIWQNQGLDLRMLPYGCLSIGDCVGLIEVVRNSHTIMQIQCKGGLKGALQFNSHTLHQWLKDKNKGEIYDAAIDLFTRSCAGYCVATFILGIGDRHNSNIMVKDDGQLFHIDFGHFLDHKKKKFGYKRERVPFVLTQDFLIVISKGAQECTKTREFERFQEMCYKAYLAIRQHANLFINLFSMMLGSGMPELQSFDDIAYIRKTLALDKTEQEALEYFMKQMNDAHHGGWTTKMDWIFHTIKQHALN
Chain of Phosphatidylinositol 4,5-bisphosphate 3-kinase catalytic subunit alpha isoform (Homo sapiens), P42336 [Q546K] (P42336 whole entry Q546K, canonical isoform): as the sequence (P42336 whole entry E542K, canonical isoform) above, with K542E, Q546K counted along it
Chain of Mitogen-activated protein kinase 4 (Homo sapiens) (P31152 whole entry): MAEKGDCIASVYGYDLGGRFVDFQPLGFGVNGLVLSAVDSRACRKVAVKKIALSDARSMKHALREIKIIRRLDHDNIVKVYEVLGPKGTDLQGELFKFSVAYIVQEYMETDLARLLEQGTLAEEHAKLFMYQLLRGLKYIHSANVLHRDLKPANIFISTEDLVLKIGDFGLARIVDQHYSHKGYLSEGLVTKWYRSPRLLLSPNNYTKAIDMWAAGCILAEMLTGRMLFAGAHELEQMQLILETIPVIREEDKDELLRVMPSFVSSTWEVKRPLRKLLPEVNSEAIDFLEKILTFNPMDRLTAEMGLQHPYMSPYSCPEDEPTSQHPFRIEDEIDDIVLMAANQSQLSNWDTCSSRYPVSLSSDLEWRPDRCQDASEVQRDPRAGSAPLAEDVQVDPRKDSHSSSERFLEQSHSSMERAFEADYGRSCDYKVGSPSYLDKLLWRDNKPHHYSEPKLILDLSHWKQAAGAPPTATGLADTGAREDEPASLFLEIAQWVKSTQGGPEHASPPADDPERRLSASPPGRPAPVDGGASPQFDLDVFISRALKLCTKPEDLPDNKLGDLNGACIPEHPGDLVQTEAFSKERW

C[C@H](NC(=O)c1cnc2n1[C@](C)(Cc1ccc(C#N)cc1)C(=O)N2c1cc(Cl)c(F)c(Cl)c1)C(=O)NC1(c2ccccn2)CC1 [BI 1950]
residual activity [1]: 100% | residual activity [2]: 92% | residual activity [3]: 100% | residual activity [4]: 100% | residual activity [5]: 100% | residual activity [6]: 100% | residual activity [7]: 100% | residual activity [8]: 100% | residual activity [9]: 100% | residual activity [10]: 100% | residual activity [11]: 100% | inhibition [12]: 9.55% | residual activity [13]: 100% | residual activity [14]: 92% | residual activity [15]: 100% | residual activity [16]: 100% | residual activity [17]: 100% | residual activity [18]: 100% | residual activity [19]: 99% | residual activity [20]: 100% | residual activity [21]: 100% | residual activity [22]: 100% | residual activity [23]: 88% | residual activity [24]: 100% | residual activity [25]: 100% | residual activity [26]: 97% | residual activity [27]: 100% | residual activity [28]: 100% | residual activity [29]: 100% | residual activity [30]: 100% | residual activity [31]: 97% | residual activity [32]: 100% | inhibition [33]: 1.26% | residual activity [34]: 68% | residual activity [35]: 68% | residual activity [36]: 100% | residual activity [37]: 86% | Kd (Integrin alpha-L): 9 nM (active) | residual activity [38]: 100% | residual activity [39]: 100% | residual activity [40]: 97% | residual activity [41]: 100% | residual activity [42]: 93% | residual activity [43]: 100% | residual activity [44]: 86%

C[C@@]1(Cc2ccc(C#N)cc2)C(=O)N(c2cc(Cl)cc(Cl)c2)c2ncc(C(=O)NC3(c4nc(C5CCC5)no4)CC3)n21 [BI 9446]
residual activity [1]: 83% | residual activity [2]: 92% | residual activity [3]: 97% | residual activity [4]: 100% | residual activity [5]: 85% | residual activity [6]: 100% | residual activity [7]: 100% | residual activity [8]: 100% | residual activity [9]: 94% | residual activity [10]: 100% | residual activity [11]: 100% | inhibition [12]: 27.6% | residual activity [13]: 100% | residual activity [14]: 100% | residual activity [15]: 100% | residual activity [16]: 97% | residual activity [17]: 100% | residual activity [18]: 100% | residual activity [19]: 100% | residual activity [20]: 92% | residual activity [21]: 100% | residual activity [22]: 100% | residual activity [23]: 93% | residual activity [24]: 100% | residual activity [25]: 100% | residual activity [26]: 88% | residual activity [27]: 90% | residual activity [28]: 100% | residual activity [29]: 100% | residual activity [30]: 90% | residual activity [31]: 96% | residual activity [32]: 100% | inhibition [33]: 18.6% | residual activity [34]: 81% | residual activity [35]: 91% | residual activity [36]: 100% | residual activity [37]: 100% | Kd (Integrin alpha-L): > 1000 nM (not active) | residual activity [38]: 100% | residual activity [39]: 100% | residual activity [40]: 95% | residual activity [41]: 94% | residual activity [42]: 95% | residual activity [43]: 100% | residual activity [44]: 97%
